We go through three molecules from patent US8497349B2, “Use of multivalent synthetic ligands of surface nucleolin for treating cancer or inflammation” (Centre National de la Recherche Scientifique (CNRS), priority 2006, dated 2013).

Side chains are listed from the residue outwards. Peptide text beside a SMILES is read from it. * marks the point of attachment. X1 = NCCCC[C@H](N)CN1CCC[C@H]1C(=O)*

In one data set the test system is NIH-3T3 cells. The data set can be described thus: Proliferation of NIH-3T3 cells stimulated by 5% foetal calf serum (tritiated thymidine incorporation). The data set is classed as cell-based. The note with it: non-stimulated NIH-3T3 cells. Here is the method: FIG. 5. Effect of HB-19 on the proliferation of NIH-3T3 cells stimulated by 0.2 nM FGF-2 (A) or by 5% foetal calf serum (B). Quiescent NIH-3T3 cells are stimulated by FGF-2 or by 5% serum in the presence or not of HB19 at the concentrations indicated. After 24 hours of incubation, cell proliferation was determined by measuring the incorporation of tritiated thymidine. The results are given as a percentage with respect to the control stimulated by HARP (100%). MSD (threshold), (**p<0.01 and ***p<0.001).
FIG. 14. Effect of NUCANT 3, 6 and 7 on the proliferation of NIH-3T3 cells stimulated by 5% FCS. […] After 24 hours of incubation, cell proliferation was determined by measuring the incorporation of tritiated thymidine. […]
The effect of Nucant 3 on the proliferation of NIH-3T3 cells treated by 5% of FCS was also compared to that of compound HB-19. […] After 24 hours in incubation, cell proliferation is determined by measuring the incorporation of tritiated thymidine as described earlier.
The effect of hexavalent compounds Nucant 6 and Nucant 7 on the proliferation of NIH-3T3 cells triggered by 5% FCS was compared with that of pentavalent compound HB-19. […] After 24 hours of incubation, cell proliferation was determined by measuring the incorporation of tritiated thymidine as described above.

The next data set has as its target T1, surface nucleolin (Homo sapiens, UniProt P19338).
T1 construct: endogenous in cells; host or cells: HeLa P4 cells
The data set can be described thus: Activity of surface nucleolin in HeLa P4 cells. The data set is classed as cell-based. The method, then:
FIG. 15. Nucant 6 and Nucant 7 show better anti-surface nucleolin activity than HB-19. ID50: concentration in μM which inhibits surface nucleolin by 50%. ID95: concentration in μM which inhibits surface nucleolin by 95%.
The activity of surface nucleolin was tested in HeLa P4 cells using the technique we have described previously (13).

The test system of the next data set is MDA-MB231 tumours. Description: Tumour growth in MDA-MB231 xenograft model in athymic mice. The data set is classed as in vivo, athymic mice (nude/nude). Here is the method: FIG. 9. Effect of HB-19 on tumour growth in an MDA-MB231 xenograft model. Human mammary carcinoma MDA-MB231 cells were injected subcutaneously athymic mice (nude). When the tumour reached a volume of 200 mm^3, mice were treated by subcutaneous route as shown in graph in A. B. Observation and measurement of tumours in mice sacrificed at day 40. C. Tumour weight in mice sacrificed at day 40.
FIG. 10. Effect of HB-19 on tumour growth in an MDA-MB231 xenograft model. Changes in tumour growth. Intraperitoneal (IP) or subcutaneous (SC) injections.
Groups of 4 athymic mice (nude/nude) were injected in the flank with 2×10^6 cells. When tumour volume reached at least 200 mm^3, mice were either treated or not by injection in the tumour (peritumoral or subcutaneous route) of 100 μl every two days of a PBS solution (control group) or HB-19 solution (5 mg/kg) or a commonly used clinical agent, tamoxifen (also called […], 10 mg/kg). Tumour size was measured on days 7, 14, 21, 28, 34 and 40 using a calliper.
In another experiment, HB19 (5 mg/kg) was administered by intraperitoneal route (IP) and peritumoral route (SC) (FIG. 10).

For data set [1] the following is noted: cited from earlier work.
Where [2] appears, read: 10 mg/kg, mice sacrificed after 40 days of treatment.

T1 sequence (P19338 whole entry): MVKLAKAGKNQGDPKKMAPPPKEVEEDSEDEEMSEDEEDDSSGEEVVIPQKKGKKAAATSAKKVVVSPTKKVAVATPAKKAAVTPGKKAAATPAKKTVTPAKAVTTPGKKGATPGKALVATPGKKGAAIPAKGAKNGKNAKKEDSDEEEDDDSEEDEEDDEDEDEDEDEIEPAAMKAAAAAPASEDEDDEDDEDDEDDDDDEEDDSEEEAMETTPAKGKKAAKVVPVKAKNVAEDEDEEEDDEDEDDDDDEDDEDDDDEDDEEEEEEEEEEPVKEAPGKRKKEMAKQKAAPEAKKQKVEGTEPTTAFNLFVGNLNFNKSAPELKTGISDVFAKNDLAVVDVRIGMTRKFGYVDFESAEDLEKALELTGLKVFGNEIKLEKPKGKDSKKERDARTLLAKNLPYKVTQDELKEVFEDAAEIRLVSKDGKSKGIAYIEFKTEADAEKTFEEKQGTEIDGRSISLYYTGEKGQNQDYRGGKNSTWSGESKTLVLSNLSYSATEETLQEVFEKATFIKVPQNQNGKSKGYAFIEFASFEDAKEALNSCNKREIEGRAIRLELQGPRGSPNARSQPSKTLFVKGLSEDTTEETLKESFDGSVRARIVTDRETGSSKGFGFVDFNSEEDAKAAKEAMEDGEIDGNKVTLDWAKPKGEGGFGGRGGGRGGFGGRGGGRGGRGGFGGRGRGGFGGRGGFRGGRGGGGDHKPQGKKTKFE

As usually defined, the inhibition is the change of the read-out against control, counted positive when it falls. Consider `CC(=O)N[C@@H](CCCCNC(=O)[C@H](CCCNC(=N)N)NC(=O)[C@@H]1CCCN1C[C@@H](N)CCCCN)C(=O)N[C@@H](C)C(=O)N[C@@H](CCCCNC(=O)[C@H](CCCNC(=N)N)NC(=O)[C@@H]1CCCN1C[C@@H](N)CCCCN)C(=O)N1CCC[C@H]1C(=O)NCC(=O)N[C@@H](CCCCNC(=O)[C@H](CCCNC(=N)N)NC(=O)[C@@H]1CCCN1C[C@@H](N)CCCCN)C(=O)N[C@@H](C)C(=O)N[C@@H](CCCCNC(=O)[C@H](CCCNC(=N)N)NC(=O)[C@@H]1CCCN1C[C@@H](N)CCCCN)C(=O)N1CCC[C@H]1C(=O)NCC(=O)N[C@@H](CCCCNC(=O)[C@H](CCCNC(=N)N)NC(=O)[C@@H]1CCCN1C[C@@H](N)CCCCN)C(=O)N[C@@H](C)C(=O)N[C@@H](CCCCNC(=O)[C@H](CCCNC(=N)N)NC(=O)[C@@H]1CCCN1C[C@@H](N)CCCCN)C(=O)N1CCC[C@H]1C(=O)NCC(N)=O` [Nucant 7] (Ac-K([Arg-X1])AK([Arg-X1])PGK([Arg-X1])AK([Arg-X1])PGK([Arg-X1])AK([Arg-X1])PG-NH2), for which, in the data set on NIH-3T3 cells, the “effect on non-stimulated cells (toxicity)” value is “No effect”. Moreover, the inhibition at 0.8 µM on surface nucleolin (M-HeLa, 0.8 μM) is > 95%. For the same molecule, the IC50 at surface nucleolin (read-out: ID50 value (Inhibitory Dose at 50%), surface nucleolin activity) was < 100 nM.

For the molecule `CC/C(=C(\c1ccccc1)c1ccc(OCCN(C)C)cc1)c1ccccc1` [tamoxifen], the “change of tumour volume from the start of treatment” value with MDA-MB231 tumours (10 mg/kg every two days) is listed as “did not change in a significant manner”. For the same molecule, in the data set with MDA-MB231 tumours (setting [2]), the “average weight of tumours” value is on record as 0.06 g and the “distribution of tumour weight” value lay in the range of 0.006 to 0.22 g.

For Avastin: anti-angiogenic agent, the survival in data set [1] (complement to chemotherapy (irinotecan/5-fluorouracile/leucovorin)) is 20.3 months. In addition, in data set [1] (complement to chemotherapy), the “length of time during which the tumour did not grow” value is recorded as 10.6 months.
